Measured values as given in patent US20140179779A1, “Deuterium Substituted Fumarate Derivatives” (Biogen IDEC MA Inc., priority 2012, published 2014).
Where a name gives a salt, the structure may show the parent alone.

Key:
[1] = system: patients with relapsing-remitting MS (RRMS); details: compared with placebo after two years of treatment; cited from earlier work
Nrf2 [2] = test: Nrf2 activation in MCF-7 ARE-luciferase reporter cell line; type: cell-based, Human
Protocol: (§1) Human cancer cell line DLD-1 and breast cancer cell line MCF7 reporter stable cell lines were generated by transfection with a firefly luciferase reporter construct harboring the luciferase cDNA cloned downstream of eight catenated copies of the antioxidant response element ([…] ID NO.:1). See Wang et al. Cancer Res. 2006; 66:10983-94. To measure Nrf2 activation in the ARE-luciferase reporter cell lines, the cells were plated in 96-well plates at 20-50 k cells/well 24 hours prior to stimulation with the test compounds. […] The reporter cells were harvested 24 hours-48 hours after addition of the compounds and lysed for detection of luciferase activity. Luciferase activity in the lysates was monitored using the Bright-Glo Luciferase Assay System of Promega and Tecan Genios Pro plate reader. Luciferase induction in the compound-treated cells was calculated as fold change over the baseline activity detected in control cultures treated with DMSO-containing media.

Nrf2 [3] = test: Nrf2 activation in DLD-1 ARE-luciferase reporter cell line; type: cell-based, Human
Protocol: as §1

[4] = MCF-7/ARE-D3, 24 hr Stimulation
[5] = MCF-7/ARE-D3, 48 hr Stimulation
[6] = DLD-1/ARE-E2, 24 hr Stimulation
[7] = DLD-1/ARE-E2, 48 hr Stimulation

Row | Compound | clinical relapses, accumulation of disability progression, and lesion number and volume [1] | Maximum Nrf2 Activation Fold Change (Nrf2 [2]; [4]) | concentration at maximum fold change (@ [uM]) (Nrf2 [2]; [4]) | Maximum Nrf2 Activation Fold Change (Nrf2 [2]; [5]) | concentration at maximum fold change (@ [uM]) (Nrf2 [2]; [5]) | Maximum Nrf2 Activation Fold Change (Nrf2 [3]; [6]) | concentration at maximum fold change (@ [uM]) (Nrf2 [3]; [6]) | Maximum Nrf2 Activation Fold Change (Nrf2 [3]; [7]) | concentration at maximum fold change (@ [uM]) (Nrf2 [3]; [7])
1 | COC(=O)/C=C/C(=O)OC [DMF, dimethyl fumarate] | significantly reduced | – | – | – | – | – | – | – | –
2 | O=C(O)/C=C/C(=O)O.[2H]C([2H])([2H])OC(=O)/C=C/C(=O)O [Example 2, (^2H3)methyl fumaric acid ester] | – | 55 fold | 1000 µM | 81 fold | 1000 µM | 6 fold | 1000 µM | 14 fold | 1000 µM
3 | COC(=O)/C=C/C(=O)O [MMF, monomethyl fumarate] | – | 75 fold | 1000 µM | 94 fold | 750 µM | 5 fold | 1000 µM | 12 fold | 1000 µM
